Measurements published in PubChem BioAssay AID192 (DTP/NCI, 2004).
“And” between values parts separate entries of the source, which are not always exact repeats. Equal values may be shown once. Inconclusive results and toxic doses are left out. Rule for the calls: active = survival T/C of 150% or more; inactive = T/C below 125% in these data.

Test system: BDF1 mice, B16 melanoma ip, median survival T/C
Test: NCI In Vivo Anticancer Drug Screen. Data for tumor model B16 Melanoma (intraperitoneal) in B6D2F1 (BDF1) mice
Details: endpoint: median survival time, higher = longer survival
Description: The antitumor activity of compounds was measured in mice bearing transplantable tumors. Survival or tumor size were measured and the results are expressed as the measurement made in the treated group (T) divided by the measurement made in the vehicle treated control group (C). The tumor model used in this assay is B16 Melanoma (intraperitoneal) in B6D2F1 (BDF1) mice

[1] = dose: 100.0 mg/kg/injection, schedule: Q01DX009 (ip), vehicle: Klucel (hydroxypropylcellulose) (HPC)
[2] = dose: 200.0 mg/kg/injection, schedule: Q01DX009 (ip), vehicle: Klucel (hydroxypropylcellulose) (HPC)
[3] = dose: 100.0 mg/kg/injection, schedule: Q01DX009 (ip), vehicle: saline with Tween-80

Measured: T/C

Nc1ccc(S(=O)(=O)Nc2cccc3ccccc23)cc1
inactive: [1] 100 % of control | [2] 100 % of control | dose: 400.0 mg/kg/injection, schedule: Q01DX009 (ip), vehicle: Klucel (hydroxypropylcellulose) (HPC) 96 % of control

CCN(CC)CCCNC(=S)NC(C)(C)CC(C)=O
inactive: dose: 75.0 mg/kg/injection, schedule: Q04DX003 (ip), vehicle: Klucel (hydroxypropylcellulose) (HPC) 95 % of control | dose: 150.0 mg/kg/injection, schedule: Q04DX003 (ip), vehicle: Klucel (hydroxypropylcellulose) (HPC) 92 % of control | dose: 300.0 mg/kg/injection, schedule: Q04DX003 (ip), vehicle: Klucel (hydroxypropylcellulose) (HPC) 95 % of control

Cc1ccc2nc3c4ccccc4c4ccccc4c3nc2c1
inactive: dose: 100.0 mg/kg/injection, schedule: Q04DX003 (ip), vehicle: Klucel (hydroxypropylcellulose) (HPC) 102 % of control | dose: 200.0 mg/kg/injection, schedule: Q04DX003 (ip), vehicle: Klucel (hydroxypropylcellulose) (HPC) 97 % of control | dose: 400.0 mg/kg/injection, schedule: Q04DX003 (ip), vehicle: Klucel (hydroxypropylcellulose) (HPC) 91 % of control

COC(=O)C(CSCc1ccccc1)NC(=O)CCNC(=O)OCc1ccccc1 (stereo not given)
inactive: dose: 25.0 mg/kg/injection, schedule: Q01DX009 (ip), vehicle: other 107 % of control | dose: 50.0 mg/kg/injection, schedule: Q01DX009 (ip), vehicle: other 92 % of control | dose: 100.0 mg/kg/injection, schedule: Q01DX009 (ip), vehicle: other 97 % of control | dose: 200.0 mg/kg/injection, schedule: Q01DX009 (ip), vehicle: other 93 % of control

CC[N](CC)[Ge]([CH2]C)[CH2]C.CC[N](CC)[Ge]([CH2]C)[CH2]C
inactive: dose: 6.25 mg/kg/injection, schedule: Q01DX009 (ip), vehicle: saline 100 % of control | dose: 12.5 mg/kg/injection, schedule: Q01DX009 (ip), vehicle: saline 99 % of control | dose: 25.0 mg/kg/injection, schedule: Q01DX009 (ip), vehicle: saline 88 % of control | dose: 50.0 mg/kg/injection, schedule: Q01DX009 (ip), vehicle: saline 86 % of control

COc1ccc(NC(=O)Nc2ccc(C)cc2C)cc1
inactive: dose: 25.0 mg/kg/injection, schedule: Q01DX009 (ip), vehicle: Klucel (hydroxypropylcellulose) (HPC) 106 % of control | dose: 50.0 mg/kg/injection, schedule: Q01DX009 (ip), vehicle: Klucel (hydroxypropylcellulose) (HPC) 101 % of control | [1] 106 % of control | [2] 93 % of control

Clc1ccc2nc(CI)c(CI)nc2c1
inactive: dose: 0.19 mg/kg/injection, schedule: Q01DX009 (ip), vehicle: saline with Tween-80 90 % of control | dose: 0.39 mg/kg/injection, schedule: Q01DX009 (ip), vehicle: saline with Tween-80 90 % of control | dose: 0.78 mg/kg/injection, schedule: Q01DX009 (ip), vehicle: saline with Tween-80 100 % of control | dose: 1.56 mg/kg/injection, schedule: Q01DX009 (ip), vehicle: saline with Tween-80 104 % of control | dose: 6.25 mg/kg/injection, schedule: Q01DX009 (ip), vehicle: saline with Tween-80 102 % of control | dose: 12.5 mg/kg/injection, schedule: Q01DX009 (ip), vehicle: saline with Tween-80 97 % of control | dose: 25.0 mg/kg/injection, schedule: Q01DX009 (ip), vehicle: saline with Tween-80 89 % of control and 97 % of control | dose: 25.0 mg/kg/injection, schedule: Q04DX003 (ip), vehicle: saline with Tween-80 100 % of control | dose: 50.0 mg/kg/injection, schedule: Q04DX003 (ip), vehicle: saline with Tween-80 100 % of control

C=C1C(=O)C2(C)OC2(C)C1C(=O)O (stereo not given)
inactive: dose: 1.25 mg/kg/injection, schedule: Q01DX009 (ip), vehicle: Klucel (hydroxypropylcellulose) (HPC) 109 % of control | dose: 2.5 mg/kg/injection, schedule: Q01DX009 (ip), vehicle: Klucel (hydroxypropylcellulose) (HPC) 105 % of control | dose: 5.0 mg/kg/injection, schedule: Q01DX009 (ip), vehicle: Klucel (hydroxypropylcellulose) (HPC) 99 % of control | dose: 10.0 mg/kg/injection, schedule: Q01DX009 (ip), vehicle: Klucel (hydroxypropylcellulose) (HPC) 93 % of control

Clc1ccc2c(c1)C(=P(c1ccccc1)(c1ccccc1)c1ccccc1)c1cc(Cl)cc(Cl)c1-2
inactive: [3] 91 % of control | dose: 200.0 mg/kg/injection, schedule: Q01DX009 (ip), vehicle: saline with Tween-80 89 % of control

CCC1CCCCC1=O (stereo not given)
inactive: dose: 44.0 mg/kg/injection, schedule: Q01DX009 (ip), vehicle: saline with Tween-80 97 % of control | dose: 67.0 mg/kg/injection, schedule: Q01DX009 (ip), vehicle: saline with Tween-80 95 % of control | [3] 100 % of control | dose: 150.0 mg/kg/injection, schedule: Q01DX009 (ip), vehicle: saline with Tween-80 102 % of control
